Results published in PMC8901119 (Chemical Science, 2021).
Read-outs that look alike come from different tables or passages of the source. One block for each compound: values may come before it. Starred links: 1 amine or outer side, 2 acyl side, 3 side chain; linkers in the order of their positions; H or OH if unused. Non-standard residues stand in square brackets, D forms with d. Residues, ends and D or L forms follow the SMILES beside them. Ala(7-MeO-coumarin-4-yl) = COc1ccc2c(C[C@H](N)C(=O)O)cc(=O)oc2c1; X1 = C[C@H](NC(=S)[C@H](CCCNC(=N)N)N[*:1])C(=O)[*:2]; X2 = C[C@H](NC(=S)[C@H](CCCCN)N[*:1])C(=O)[*:2]

Assays:
cathepsin V (Cts V) = settings: 27 °C, up to 100 min
cathepsin L (Cts L) [1] = settings: human, 27 °C, up to 100 min
cathepsin K (Cts K) = settings: 27 °C, up to 100 min
cathepsin S (Cts S) = settings: 27 °C, up to 100 min
cathepsin B (Cts B) = settings: human, 27 °C, up to 100 min
Cts L = Cts L (Homo sapiens, UniProt P07711); assay: Cathepsin L inhibition assay with Z-FR-AMC
[2] = Stability of peptides in HepG2 whole cell lysate; format: in vitro ADME; settings: human
Description: Stability of Peptides in HepG2 Whole Cell Lysate
Using the same conditions as the previous Cts L Activity Assay in HepG2 Whole Cell Lysate, 50 μL peptide (either R1A or RS1A; final concentration 20 μM) was incubated in 50 μL HepG2 whole cell lysate (to a final concentration of 0.05 mg/mL) in the assay buffer for different time points.
The all-amide peptide, R 1A, was incubated for t = 0, 5, 10, 15, 20, and 30 minutes. The thioamide peptide, RS1A, was incubated for t = 0, 2, 6, 8, 10, and 24 hours. After incubation for the desired amount of time, 100 μL methanol was added to the mixture and incubated at -20 °C for 10 minutes before spinning down at 13,000 rpm for 10 minutes. Then, 180 μL of each mixture was further diluted with 220 μL Milli-Q water to a total volume of 400 μL before adding 1 μL 0.42 mM coumarin internal standard for HPLC analysis. The coumarin internal standard was used to normalize the amount of intact peptide in each sample. A Phenomenex Luna® Omega 5 µm PS C18 100 Å analytical column was used to analyze all samples using the same gradient of 20-40 % B over 20 minutes (Solvent A: 0.1% TFA in Milli-Q water; Solvent B: 0.1% TFA in acetonitrile).
Representative HPLC spectra (325 nm) at different time points were also shown to confirm the stability of the peptides in HepG2 whole cell lysate (Figure S26 A & B). MALDI MS was used to confirm the mass from each fraction from the HPLC from experiment with the all-amide peptide (R 1A – expected [M+H]+ = 1133.51 m/z) and the thioamide peptide ( RS1A – expected [M+H]+ = 1149.48 m/z). To calculate the percent intact peptide for each sample, the average ratio of intact peptide to internal standard was compared to that ratio at t = 0. For each time point, the experiment

cathepsin L (Cts L) [3] = settings: human, 27 °C, up to 2-hour
[4] = Cts L, mixed inhibition model fit, Z-FR-AMC, pH 5.5, 27 °C

Chain of Cts L (P07711 114-333): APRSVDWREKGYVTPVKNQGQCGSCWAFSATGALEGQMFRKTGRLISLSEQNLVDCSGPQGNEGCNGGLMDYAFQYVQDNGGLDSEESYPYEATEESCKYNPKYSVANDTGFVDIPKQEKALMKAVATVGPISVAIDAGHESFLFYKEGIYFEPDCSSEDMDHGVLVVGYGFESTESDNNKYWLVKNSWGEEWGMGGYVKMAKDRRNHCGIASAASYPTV

- remaining at 2 h, 20 μM ([2]; HepG2 lysate, 2 hours, read-out: % intact peptide): 86.3%
- remaining at 6 h, 20 μM ([2]; HepG2 lysate, 6 hours, read-out: % intact peptide): 75.7%
- remaining at 8 h, 20 μM ([2]; HepG2 lysate, 8 hours, read-out: % intact peptide): 80.7%
- remaining at 10 h, 20 μM ([2]; HepG2 lysate, 10 hours, read-out: % intact peptide): 79.9%
- remaining at 24 h, 20 μM ([2]; HepG2 lysate, 24 hours, read-out: % intact peptide): 61.3%
Compound: COc1ccc2c(C[C@H](NC(=O)[C@H](C)NC(=S)[C@H](CCCNC(=N)N)NC(=O)[C@H](Cc3ccccc3)NC(=O)[C@H](CC(C)C)NC(=O)[C@H](Cc3c[nH]cn3)NC(=O)[C@@H](N)Cc3cc(=O)oc4cc(OC)ccc34)C(=O)O)cc(=O)oc2c1 [R^S1A, μHLFR^SAμ] (H-[Ala(7-MeO-coumarin-4-yl)]HLF[X1][Ala(7-MeO-coumarin-4-yl)]-OH)

- half-life at 20 μM ([2]; 20 μM peptide, 0.05 mg/mL lysate, HPLC): 7.2 min
- remaining at 5 min, 20 μM ([2]; HepG2 lysate, 5 mins, read-out: % intact peptide): 46%
- remaining at 10 min, 20 μM ([2]; HepG2 lysate, 10 mins, read-out: % intact peptide): 36%
- remaining at 0.25 h, 20 μM ([2]; HepG2 lysate, 15 mins, read-out: % intact peptide): 32.8%
- remaining at 20 min, 20 μM ([2]; HepG2 lysate, 20 mins, read-out: % intact peptide): 21.7%
- remaining at 0.5 h, 20 μM ([2]; HepG2 lysate, 30 mins, read-out: % intact peptide): 6.92%
Compound: COc1ccc2c(C[C@H](NC(=O)[C@H](C)NC(=O)[C@H](CCCNC(=N)N)NC(=O)[C@H](Cc3ccccc3)NC(=O)[C@H](CC(C)C)NC(=O)[C@H](Cc3c[nH]cn3)NC(=O)[C@@H](N)Cc3cc(=O)oc4cc(OC)ccc34)C(=O)O)cc(=O)oc2c1 [R1A, μHLFRAμ] (H-[Ala(7-MeO-coumarin-4-yl)]HLFRA[Ala(7-MeO-coumarin-4-yl)]-OH)

- not cleaved (cathepsin V (Cts V)): No cleavage
- not cleaved (cathepsin L (Cts L) [1]): No cleavage
- not cleaved (cathepsin K (Cts K)): No cleavage
- not cleaved (cathepsin S (Cts S)): No cleavage
- not cleaved (cathepsin B (Cts B)): No cleavage
Compound: μHLFR^SAμ

- Ki (Cts L; [4]): 0.52 ± 0.12 µM
Compound: COc1ccc2c(C[C@H](NC(=O)[C@H](C)NC(=O)[C@H](C)NC(=O)[C@H](C)NC(=S)[C@H](CCCNC(=N)N)NC(=O)[C@H](Cc3ccccc3)NC(=O)[C@H](CC(C)C)NC(=O)[C@H](Cc3c[nH]cn3)NC(=O)[C@@H](N)Cc3cc(=O)oc4cc(OC)ccc34)C(=O)O)cc(=O)oc2c1 [R^S3A, μHLFR^SAAAμ] (H-[Ala(7-MeO-coumarin-4-yl)]HLF[X1]AA[Ala(7-MeO-coumarin-4-yl)]-OH)

- Ki (Cts L; [4]): 1.68 ± 0.49 µM
Compound: COc1ccc2c(C[C@H](NC(=O)[C@H](C)NC(=O)[C@H](C)NC(=O)[C@H](C)NC(=O)[C@H](CCCNC(=N)N)NC(=O)[C@H](Cc3ccccc3)NC(=O)[C@H](CC(C)C)NC(=O)[C@H](Cc3c[nH]cn3)NC(=O)[C@@H](N)Cc3cc(=O)oc4cc(OC)ccc34)C(=O)O)cc(=O)oc2c1 [R3A, μHLFRAAAμ] (H-[Ala(7-MeO-coumarin-4-yl)]HLFRAAA[Ala(7-MeO-coumarin-4-yl)]-OH)

Continued, compound first:

Compound: μHLFR^SAAAμ (H-[Ala(7-MeO-coumarin-4-yl)]HLF[X1]AA[Ala(7-MeO-coumarin-4-yl)]-OH; SMILES COc1ccc2c(C[C@H](NC(=O)[C@H](C)NC(=O)[C@H](C)NC(=O)[C@H](C)NC(=S)[C@H](CCCNC(=N)N)NC(=O)[C@H](Cc3ccccc3)NC(=O)[C@H](CC(C)C)NC(=O)[C@H](Cc3c[nH]cn3)NC(=O)[C@@H](N)Cc3cc(=O)oc4cc(OC)ccc34)C(=O)O)cc(=O)oc2c1)
- not cleaved (cathepsin V (Cts V)): No cleavage
- cleaved bond (cathepsin L (Cts L) [1]): A-A
- not cleaved (cathepsin K (Cts K)): No cleavage
- not cleaved (cathepsin S (Cts S)): No cleavage
- cleaved bond (cathepsin B (Cts B)): A-A

Compound: COc1ccc2c(C[C@H](NC(=O)[C@H](C)NC(=O)[C@H](C)NC(=O)[C@H](C)NC(=O)[C@H](CCCCN)NC(=O)[C@H](Cc3ccccc3)NC(=O)[C@H](CC(C)C)NC(=O)[C@H](Cc3c[nH]cn3)NC(=O)[C@@H](N)Cc3cc(=O)oc4cc(OC)ccc34)C(=O)O)cc(=O)oc2c1 [K3A, μHLFKAAAμ] (H-[Ala(7-MeO-coumarin-4-yl)]HLFKAAA[Ala(7-MeO-coumarin-4-yl)]-OH)
- Ki (Cts L; [4]): 3.05 ± 0.64 µM

Compound: HLFR^SA
- not cleaved (cathepsin L (Cts L) [3]): remained intact after the 2-hour assay

Compound: μHLFK^SAAAμ (H-[Ala(7-MeO-coumarin-4-yl)]HLF[X2]AA[Ala(7-MeO-coumarin-4-yl)]-OH; SMILES COc1ccc2c(C[C@H](NC(=O)[C@H](C)NC(=O)[C@H](C)NC(=O)[C@H](C)NC(=S)[C@H](CCCCN)NC(=O)[C@H](Cc3ccccc3)NC(=O)[C@H](CC(C)C)NC(=O)[C@H](Cc3c[nH]cn3)NC(=O)[C@@H](N)Cc3cc(=O)oc4cc(OC)ccc34)C(=O)O)cc(=O)oc2c1)
- not cleaved (cathepsin V (Cts V)): No cleavage
- cleaved bond (cathepsin L (Cts L) [1]): A-A
- not cleaved (cathepsin K (Cts K)): No cleavage
- not cleaved (cathepsin S (Cts S)): No cleavage
- cleaved bond (cathepsin B (Cts B)): A-A

Compound: COc1ccc2c(C[C@H](NC(=O)[C@H](C)NC(=O)[C@H](C)NC(=O)[C@H](C)NC(=S)[C@H](CCCCN)NC(=O)[C@H](Cc3ccccc3)NC(=O)[C@H](CC(C)C)NC(=O)[C@H](Cc3c[nH]cn3)NC(=O)[C@@H](N)Cc3cc(=O)oc4cc(OC)ccc34)C(=O)O)cc(=O)oc2c1 [K^S3A, μHLFK^SAAAμ] (H-[Ala(7-MeO-coumarin-4-yl)]HLF[X2]AA[Ala(7-MeO-coumarin-4-yl)]-OH)
- Ki (Cts L; [4]): 0.6 ± 0.15 µM

Compound: μHLFRAAAμ (H-[Ala(7-MeO-coumarin-4-yl)]HLFRAAA[Ala(7-MeO-coumarin-4-yl)]-OH; SMILES COc1ccc2c(C[C@H](NC(=O)[C@H](C)NC(=O)[C@H](C)NC(=O)[C@H](C)NC(=O)[C@H](CCCNC(=N)N)NC(=O)[C@H](Cc3ccccc3)NC(=O)[C@H](CC(C)C)NC(=O)[C@H](Cc3c[nH]cn3)NC(=O)[C@@H](N)Cc3cc(=O)oc4cc(OC)ccc34)C(=O)O)cc(=O)oc2c1)
- cleaved bond (cathepsin S (Cts S)): R-A
- cleaved bond (cathepsin B (Cts B)): R-A

Compound: COc1ccc2c(C[C@H](NC(=O)[C@H](C)NC(=O)[C@H](C)NC(=O)[C@H](C)NC(=S)[C@H](CCCCN)NC(=O)[C@H](CC(C)C)NC(=O)[C@H](CC(C)C)NC(=O)[C@@H](N)Cc3cc(=O)oc4cc(OC)ccc34)C(=O)O)cc(=O)oc2c1 [K^SP1, μLLK^SAAAμ] (H-[Ala(7-MeO-coumarin-4-yl)]LL[X2]AA[Ala(7-MeO-coumarin-4-yl)]-OH; N-terminus and C-terminus assumed)
- Ki (Cts L; Cts L (preliminary data), phosphate buffer pH 6.0, 27 °C, preliminary): 0.87 µM

Compound: μHLFKAAAμ (H-[Ala(7-MeO-coumarin-4-yl)]HLFKAAA[Ala(7-MeO-coumarin-4-yl)]-OH; SMILES COc1ccc2c(C[C@H](NC(=O)[C@H](C)NC(=O)[C@H](C)NC(=O)[C@H](C)NC(=O)[C@H](CCCCN)NC(=O)[C@H](Cc3ccccc3)NC(=O)[C@H](CC(C)C)NC(=O)[C@H](Cc3c[nH]cn3)NC(=O)[C@@H](N)Cc3cc(=O)oc4cc(OC)ccc34)C(=O)O)cc(=O)oc2c1)
- cleaved bond (cathepsin S (Cts S)): K-A
- cleaved bond (cathepsin B (Cts B)): K-A
